Numbered stars: 1 amine (or outer) side, 2 acyl side, 3 side chain; on linkers, the order of the positions; unused ones are H or OH. Square brackets hold non-standard residues; d marks the D form. Peptide text beside a SMILES is read from it. * marks the point of attachment. ξ: configuration not given here. Dolaproine(all-ξ) = COC(C(C)C(=O)[*:2])C1CCCN1[*:1]; Dolaproine = CO[C@@H]([C@@H]1CCCN1)[C@@H](C)C(=O)O; Hexanoyl(6-maleimido) = O=C1C=CC(=O)N1CCCCCC(=O)*; X1 = CC(C)[C@@H](C(=O)[*:2])N(C)C[C@@H](C)N[*:1]; Dil = CC[C@H](C)[C@H](NC)[C@@H](CC(=O)O)OC; X2 = CCC(C)C(C(CC(=O)[*:2])OC)N(C)[*:1]; X5 = CC(C)[C@@H](C(=O)*)N(C)C[C@@H](C)N; X4 = CC(C)[C@@H](C(=O)*)N(C)C[C@H](C)N; Cit = NC(=O)NCCC[CH](N)C(=O)O; NMeV = CN[CH](C(=O)O)C(C)C; ξCit = NC(=O)NCCCC(N)C(=O)O; X3 = CC(N*)C(O)c1ccccc1; Me2Gly = CN(C)CC(=O)*
tested on: HT-1080 human fibrosarcoma tumor xenograft; experiment: HT-1080 human fibrosarcoma tumor xenograft therapeutic model; format: in vivo, athymic nude mice; settings: 0.6 to 3.0 mg/kg of cytotoxic agent component, IV on days 0 and 3, tumor volume at day 9
Procedure: Female athymic nude mice (8-10 weeks old) purchased from Charles River (Wilmington, 01887, MA) were used after 4-7 day of acclimatization period. Institutional Animal Care and Use Committee (IACUC) approved protocols #EB11-002-009-1 and CP-17-09. HT-1080 human fibrosarcoma tumor cells from ATCC (CCL-121™) were grown using standard cell culture techniques. Tumor cells (1×10^8 tumor cells/mL) were suspended in DPBS/Matrigel™ (1:1 vol) and implanted subcutaneously (50 μL tumor cell suspension/mouse) into the upper mammary fat pad or right flank of mice with individual identification number (ear tag). Four to seven days later when the average tumor volume was about 50-100 mm^3, mice were randomized into different experimental groups to have similar averaged (Mean±SEM) tumor volume and dosed with (i) vehicle and (ii) different doses of test compounds. Each group typically had 4 mice. For each involved tumor-bearing mouse, the tumor volume (mm^3) was measured using a caliper and calculated as follows: tumor volume=width^2×length/2. Test compounds were administered intravenously (tail vein) twice (two administrations 3 days apart) in conscious restrained tumor-bearing mice throughout the study. Individual tumor volume, body weight as well as clinical signs were recorded during the study. Each study was terminated on day 12 post-dosing initiation. Mice were euthanized by intracardiac ketamine-xylazine overdose after recording the last individual body weight and tumor volume. For each experimental group and study day, the tumor volumes from all mice were averaged and expressed as Mean±SD. In order to directly and objectively compare anti-tumor activity of candidate SDM's, tumor volume was assessed at the same Day 9 timepoint (6 days after the cessation of test compound administration) for each experimental cohort of test compound-treated group(s) and vehicle. Graphs show tumor volume in cubic millimeters versus time. […] Compound administration is indicated by downward arrow over data point on day 0 and 3.

Q: With CCC(C)C(C(CC(=O)N1CCCC1C(OC)C(C)C(=O)NC(C)C(O)c1ccccc1)OC)N(C)C(=O)C(NC(=O)C(C(C)C)N(C)C(=O)CNC(=O)C(CCCNC(N)=O)NC(=O)C(NC(=O)CCCCCN1C(=O)C=CC1=O)C(C)C)C(C)C (stereo not drawn) [SDM-320, maleimidocaproyl-valine-citrulline-GlyMMAE] ({Hexanoyl(6-maleimido)}-V[Cit]G[NMeV]V[X2][Dolaproine(all-ξ)]-X3; configuration not given here) as the molecule, how does the “Efficacy (percent tumor growth inhibition versus vehicle)” value read?
A: The value was “Low (Low: <29% inhibition)”.

Q: How did the “Efficacy (percent tumor growth inhibition versus vehicle)” value turn out when CC[C@H](C)[C@@H]([C@@H](CC(=O)N1CCC[C@H]1[C@H](OC)[C@@H](C)C(=O)N[C@@H](Cc1ccccc1)C(=O)NC)OC)N(C)C(=O)[C@@H](NC(=O)[C@H](C(C)C)N(C)C(=O)CNC(=O)[C@H](CCCNC(N)=O)NC(=O)[C@@H](NC(=O)CCCCCN1C(=O)C=CC1=O)C(C)C)C(C)C [SDM-380] ({Hexanoyl(6-maleimido)}-V[Cit]G[NMeV]V[Dil][Dolaproine]F-NHMe) was run?
A: The value was “Low (Low: <29% inhibition)”.

Q: CC[C@H](C)[C@@H]([C@@H](CC(=O)N1CCC[C@H]1[C@H](OC)[C@@H](C)C(=O)N[C@@H](Cc1ccccc1)C(=O)OC)OC)N(C)C(=O)[C@@H](NC(=O)[C@H](C(C)C)N(C)C[C@@H](C)NC(=O)C(CCCNC(N)=O)NC(=O)[C@@H](NC(=O)CCCCCN1C(=O)C=CC1=O)C(C)C)C(C)C (stereo partly drawn) [SDM-344] ({Hexanoyl(6-maleimido)}-V[ξCit][X1]V[Dil][Dolaproine]F-OMe) was tested. Which “Efficacy (percent tumor growth inhibition versus vehicle)” value did it give?
A: The value was “Medium (Medium: ≥29% inhibition to <80% inhibition)”.

tested on: HT1080 Cells; experiment: Active Cellular Cytotoxic (ACC) molecules efficacy in HT1080 cells in vitro assay; format: cell-based; settings: Homo sapiens, HT-1080, 96 h, four days incubation, Prestoblue, average error of 38%
Procedure: Method: Plate cells one day prior to start of assay in 96 well black with clear bottom plates (Corning #3603), 2×10^4 cells per well in 100 μL of standard growth media (according to ATCC). Grow cells to 90% confluency.
Before start of assay rinse cells 1× with DPBS. Add compounds in a 3-fold serial dilution in triplicate (range e.g. 40 μM-18 nM), 100 μL per well in standard growth media.
Incubate four days then assay cell viability as described below. Remove media and rinse 1× with DPBS, then add 100 μL per well 10% Prestoblue Cell viability reagent (Thermo Fisher Scientific #A13261) in complete media. Return to incubator for two hours then read plate on SpectraMax M2e, bottom read excitation 555 emission 585 cut-off 570 which measures number of live cells. Cell viability was plotted versus compound concentration and data were fit to Log inhibitor vs response curve in GraphPad Prism and EC50 were determined.
Table 14 provides cellular activity data for exemplary ACCs (compound EC50 for reduction of viable cells).

Q: With CC[C@H](C)[C@@H]([C@@H](CC(=O)N1CCC[C@H]1[C@H](OC)[C@@H](C)C(=O)N[C@@H](Cc1ccccc1)C(=O)O)OC)N(C)C(=O)[C@@H](NC(=O)[C@H](C(C)C)N(C)C[C@@H](C)N)C(C)C [ACC-10] (X5-V[Dil][Dolaproine]F-OH) as the molecule, how does the EC50 read?
A: The EC50 was 1.02 µM.

Q: How did the EC50 turn out when CC[C@H](C)[C@@H]([C@@H](CC(=O)N1CCC[C@H]1[C@H](OC)[C@@H](C)C(=O)N[C@@H](Cc1ccccc1)C(=O)O)OC)N(C)C(=O)[C@@H](NC(=O)[C@H](C(C)C)N(C)C(=O)CN(C)C)C(C)C [ACC-1] (Me2Gly-[NMeV]V[Dil][Dolaproine]F-OH) was run?
A: Its EC50 is 2.1 µM.

Q: Which EC50 does the source give for CC[C@H](C)[C@@H]([C@@H](CC(=O)N1CCC[C@H]1[C@H](OC)[C@@H](C)C(=O)N[C@@H](Cc1ccccc1)C(=O)O)OC)N(C)C(=O)[C@@H](NC(=O)[C@H](C(C)C)N(C)C[C@H](C)N)C(C)C [ACC-11] (X4-V[Dil][Dolaproine]F-OH) here?
A: The EC50 was 1.74 µM.

Q: For CC[C@H](C)[C@@H]([C@@H](CC(=O)N1CCC[C@H]1[C@H](OC)[C@@H](C)C(=O)N[C@@H](Cc1ccccc1)C(=O)O)OC)N(C)C(=O)[C@@H](NC(=O)[C@H](C(C)C)N(C)C(=O)CNC)C(C)C [ACC-4] (HELM PEPTIDE1{[Sar].[meV].V.[CC[C@H](C)[C@@H]([C@@H](CC(=O)[*:2])OC)N(C)[*:1]].[CO[C@H]([C@@H](C)C(=O)[*:2])[C@@H]1CCCN1[*:1]].F}$$$$V2.0), which EC50 is on record?
A: The EC50 was 4.4 µM.

Q: With CC[C@H](C)[C@@H]([C@@H](CC(=O)N1CCC[C@H]1[C@H](OC)[C@@H](C)C(=O)N[C@@H](Cc1ccccc1)C(=O)O)OC)N(C)C(=O)[C@@H](NC(=O)[C@H](C(C)C)N(C)C[C@@H](C)NC(=O)CN)C(C)C [ACC-8] (H-G[X1]V[Dil][Dolaproine]F-OH) as the molecule, how does the EC50 read?
A: Its EC50 is 0.91 µM.

Q: Which EC50 does the source give for CC[C@H](C)[C@@H]([C@@H](CC(=O)N1CCC[C@H]1[C@H](OC)[C@@H](C)C(=O)N[C@@H](Cc1ccccc1)C(=O)O)OC)N(C)C(=O)[C@@H](NC(=O)[C@H](C(C)C)N(C)C(=O)CN)C(C)C [ACC-5] (HELM PEPTIDE1{G.[meV].V.[CC[C@H](C)[C@@H]([C@@H](CC(=O)[*:2])OC)N(C)[*:1]].[CO[C@H]([C@@H](C)C(=O)[*:2])[C@@H]1CCCN1[*:1]].F}$$$$V2.0) here?
A: Its EC50 is 0.71 µM.
